In ChEMBL document CHEMBL1201862, “PubChem BioAssay data set” (2004):
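Test compounds were applied to cells in 96-well plates for 48 hours at 5 doses. GI50 is the concentration that inhibits growth by half.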 Activity calls are given as the source filed them. Rule as the data show it: active = GI50 up to about 1.1 µM and inactive = higher.

What was measured:
Assay in all cases: DTP human tumour cell line panel, 48 h
HT-29 = system: HT-29
NCI/ADR-RES = system: NCI/ADR-RES
EKVX = system: EKVX
SK-MEL-2 = system: SK-MEL-2
ACHN = system: ACHN
MDA-N = system: MDA-N
Malme-3M = system: Malme-3M
M14 = system: M14
A498 = system: A498
IGROV-1 = system: IGROV-1
SW-620 = system: SW-620
SN12C = system: SN12C
OVCAR-4 = system: OVCAR-4
RXF 393 = system: RXF 393
SNB-19 = system: SNB-19
HCT-116 = system: HCT-116
786-0 = system: 786-0
HCT-15 = system: HCT-15
CAKI-1 = system: CAKI-1
SF-295 = system: SF-295
DU-145 = system: DU-145
SK-MEL-28 = system: SK-MEL-28
OVCAR-8 = system: OVCAR-8
HOP-62 = system: HOP-62
MDA-MB-435 = system: MDA-MB-435
MOLT-4 = system: MOLT-4
HOP-92 = system: HOP-92
SNB-75 = system: SNB-75
Hs-578T = system: Hs-578T
HL-60 = system: HL-60
SK-OV-3 = system: SK-OV-3
CCRF-CEM = system: CCRF-CEM
OVCAR-5 = system: OVCAR-5
UACC-62 = system: UACC-62
LOX IMVI = system: LOX IMVI
MDA-MB-231 = system: MDA-MB-231
SF-268 = system: SF-268
UACC-257 = system: UACC-257
T47D = system: T47D
KM12 = system: KM12
NCI-H522 = system: NCI-H522
OVCAR-3 = system: OVCAR-3
SK-MEL-5 = system: SK-MEL-5
COLO 205 = system: COLO 205
A549 = system: A549
SF-539 = system: SF-539
MCF7 = system: MCF7
RPMI-8226 = system: RPMI-8226
HCC 2998 = system: HCC 2998
K562 = system: K562
TK-10 = system: TK-10
UO-31 = system: UO-31
NCI-H23 = system: NCI-H23
NCI-H460 = system: NCI-H460
BT-549 = system: BT-549
PC-3 = system: PC-3
U-251 = system: U-251

## Cc1ccc(Nc2n[nH]c(=S)s2)cc1C
HT-29
  GI50: 57.4 µM (inactive)
NCI/ADR-RES
  GI50: > 100 µM (inactive)
EKVX
  GI50: > 100 µM (inactive)
SK-MEL-2
  GI50: > 100 µM (inactive)
ACHN
  GI50: > 100 µM (inactive)
MDA-N
  GI50: 40.6 µM (inactive)
Malme-3M
  GI50: > 100 µM (inactive)
M14
  GI50: > 100 µM (inactive)
A498
  GI50: 58.7 µM (inactive)
IGROV-1
  GI50: > 100 µM (inactive)
SW-620
  GI50: > 100 µM (inactive)
SN12C
  GI50: > 100 µM (inactive)
OVCAR-4
  GI50: 89.9 µM (inactive)
RXF 393
  GI50: > 100 µM (inactive)
SNB-19
  GI50: > 100 µM (inactive)
HCT-116
  GI50: > 100 µM (inactive)
786-0
  GI50: > 100 µM (inactive)
HCT-15
  GI50: 60.4 µM
CAKI-1
  GI50: > 100 µM (inactive)
SF-295
  GI50: 79.6 µM (inactive)
DU-145
  GI50: > 100 µM (inactive)
SK-MEL-28
  GI50: 57.9 µM (inactive)
OVCAR-8
  GI50: > 100 µM (inactive)
HOP-62
  GI50: > 100 µM (inactive)
MDA-MB-435
  GI50: 53.5 µM (inactive)
MOLT-4
  GI50: 59.3 µM (inactive)
HOP-92
  GI50: > 100 µM (inactive)
SNB-75
  GI50: > 100 µM (inactive)
Hs-578T
  GI50: > 100 µM (inactive)
HL-60
  GI50: 71.1 µM (inactive)
SK-OV-3
  GI50: > 100 µM (inactive)
CCRF-CEM
  GI50: 72.9 µM (inactive)
OVCAR-5
  GI50: > 100 µM (inactive)
UACC-62
  GI50: > 100 µM (inactive)
LOX IMVI
  GI50: > 100 µM (inactive)
MDA-MB-231
  GI50: > 100 µM (inactive)
SF-268
  GI50: > 100 µM (inactive)
UACC-257
  GI50: > 100 µM (inactive)
T47D
  GI50: 27.4 µM (inactive)
KM12
  GI50: 78.5 µM (inactive)
NCI-H522
  GI50: 60.3 µM (inactive)
OVCAR-3
  GI50: > 100 µM (inactive)
SK-MEL-5
  GI50: 68.2 µM (inactive)
COLO 205
  GI50: 66.1 µM (inactive)
A549
  GI50: 79.4 µM (inactive)
SF-539
  GI50: > 100 µM (inactive)
MCF7
  GI50: 90.4 µM (inactive)
RPMI-8226
  GI50: 81.5 µM (inactive)
HCC 2998
  GI50: 70.6 µM (inactive)
K562
  GI50: 64.1 µM (inactive)
TK-10
  GI50: > 100 µM (inactive)
UO-31
  GI50: > 100 µM (inactive)
NCI-H23
  GI50: > 100 µM (inactive)
NCI-H460
  GI50: 59 µM (inactive)
BT-549
  GI50: > 100 µM (inactive)
PC-3
  GI50: > 100 µM (inactive)
U-251
  GI50: 92.7 µM (inactive)
